Measured values: BindingDB's records for doi:10.1016/j.bioorg.2014.02.001 (University of Delhi, 2014)

Tests used:
[1] = biological target: Proto-oncogene tyrosine-protein kinase Src (c-Src); test: The kinase reaction was initiated with the incubation of the 2.5 µL of the reaction cocktail (0.7 nM of His6-Src kinase domain in kinase buffer) with 2.5 µL of prediluted compounds (dissolved in 10% DMSO, 4X target concentration) for 10 min at room temperature. The reaction cocktail contained 200 mM HEPES (pH 7.5), 16 mM MgC
[2] = biological target: T1, 3-phosphoinositide-dependent protein kinase 1 (Homo sapiens, UniProt O15530); test: EGFR, MAPK and PDK Inhibitory Acitivity Assay; conditions: pH 7
T1 sequence (O15530 whole entry): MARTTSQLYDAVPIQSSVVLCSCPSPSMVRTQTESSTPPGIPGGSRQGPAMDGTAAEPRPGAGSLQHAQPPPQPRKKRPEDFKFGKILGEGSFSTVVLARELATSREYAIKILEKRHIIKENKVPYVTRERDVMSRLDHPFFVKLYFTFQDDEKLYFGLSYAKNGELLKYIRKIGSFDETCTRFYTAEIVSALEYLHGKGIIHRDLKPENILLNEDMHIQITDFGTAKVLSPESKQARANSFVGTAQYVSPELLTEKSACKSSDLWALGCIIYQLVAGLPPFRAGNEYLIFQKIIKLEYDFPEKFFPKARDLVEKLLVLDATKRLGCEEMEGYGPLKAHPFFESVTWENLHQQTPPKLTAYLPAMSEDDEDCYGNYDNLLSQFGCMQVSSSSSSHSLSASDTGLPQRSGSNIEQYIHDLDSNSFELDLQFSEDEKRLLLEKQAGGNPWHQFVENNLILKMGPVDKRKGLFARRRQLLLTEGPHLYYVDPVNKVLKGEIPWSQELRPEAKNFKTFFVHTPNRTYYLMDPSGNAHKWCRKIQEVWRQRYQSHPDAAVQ
Experimental: (§1) EGFR was incubated with 8 mM MOPS (pH 7.0), 0.2 mM EDTA, 10 mM MnCl2, 0.1 mg/mL poly(Glu, Tyr) 4:1. MAPK1 was incubated with 25 mM Tris (pH 7.5), 0.02 mM EGTA, 250 µM substrate peptide (MAPK1-peptide), whereas PDK1 was incubated with 50 mM Tris (pH 7.5), 100 µM […] (PDKtide). The incubation was followed by the addition of 10 mM magnesium acetate and gamma-P33-ATP to each kinase. The kinase reactions were initiated with the addition of Mg:ATP mixture and stopped after 40 min of incubation with the addition of 3% phosphoric acid solution.

[3] = biological target: T2, Epidermal growth factor receptor [1-973] (Homo sapiens, UniProt P00533); test: EGFR, MAPK and PDK Inhibitory Acitivity Assay; conditions: pH 7
T2 construct: 1-973
T2 sequence (P00533 1-973): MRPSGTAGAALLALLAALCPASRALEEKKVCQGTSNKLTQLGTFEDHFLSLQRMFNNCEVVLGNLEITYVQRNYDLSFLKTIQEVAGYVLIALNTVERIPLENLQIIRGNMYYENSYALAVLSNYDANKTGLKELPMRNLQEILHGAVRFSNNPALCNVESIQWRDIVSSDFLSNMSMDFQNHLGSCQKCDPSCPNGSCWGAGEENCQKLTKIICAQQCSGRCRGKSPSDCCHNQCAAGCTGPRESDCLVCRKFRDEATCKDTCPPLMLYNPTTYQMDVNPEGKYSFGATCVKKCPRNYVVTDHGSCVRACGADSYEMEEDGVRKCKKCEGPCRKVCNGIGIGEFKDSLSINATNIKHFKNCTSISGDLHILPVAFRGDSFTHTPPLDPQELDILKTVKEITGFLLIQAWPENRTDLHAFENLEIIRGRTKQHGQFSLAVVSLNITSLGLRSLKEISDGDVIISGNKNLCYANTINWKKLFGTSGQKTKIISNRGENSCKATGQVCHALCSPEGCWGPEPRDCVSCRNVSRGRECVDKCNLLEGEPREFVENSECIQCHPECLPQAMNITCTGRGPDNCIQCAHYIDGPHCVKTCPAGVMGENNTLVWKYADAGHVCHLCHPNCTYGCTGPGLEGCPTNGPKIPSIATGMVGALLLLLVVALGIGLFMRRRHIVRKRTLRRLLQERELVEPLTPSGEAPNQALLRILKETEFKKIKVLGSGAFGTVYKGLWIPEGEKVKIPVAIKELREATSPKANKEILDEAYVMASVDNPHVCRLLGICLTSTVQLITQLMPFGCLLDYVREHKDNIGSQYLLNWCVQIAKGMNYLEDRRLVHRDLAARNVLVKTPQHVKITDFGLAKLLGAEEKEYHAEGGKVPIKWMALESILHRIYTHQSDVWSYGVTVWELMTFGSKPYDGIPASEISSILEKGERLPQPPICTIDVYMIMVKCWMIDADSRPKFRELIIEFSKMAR
Experimental: as §1

[4] = biological target: Mitogen-activated protein kinase 1 (Homo sapiens, UniProt P28482); test: EGFR, MAPK and PDK Inhibitory Acitivity Assay; conditions: pH 7
Mitogen-activated protein kinase 1, sequence (P28482 whole entry): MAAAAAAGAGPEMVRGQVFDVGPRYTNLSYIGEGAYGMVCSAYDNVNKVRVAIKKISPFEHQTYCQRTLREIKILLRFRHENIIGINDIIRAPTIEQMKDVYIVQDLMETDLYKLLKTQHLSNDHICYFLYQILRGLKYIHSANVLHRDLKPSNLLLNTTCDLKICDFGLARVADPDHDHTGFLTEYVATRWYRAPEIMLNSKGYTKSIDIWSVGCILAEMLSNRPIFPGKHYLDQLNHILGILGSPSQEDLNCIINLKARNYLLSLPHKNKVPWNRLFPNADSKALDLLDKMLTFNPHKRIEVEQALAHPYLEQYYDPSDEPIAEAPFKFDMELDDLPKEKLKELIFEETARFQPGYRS
Experimental: as §1

Compound | IC50 [1] | also measured
CCCCCCn1cc(C(=O)c2ccc(OC)cc2O)ccc1=O [1-Hexyl-5-(2-hydroxy-4-methoxybenzoyl)pyridin-2(1H)-one (34)] | 34.1 µM | 
CCCCCCn1cc(C(=O)c2cc(OC)ccc2O)ccc1=O [1-Hexyl-5-(2-hydroxy-5-methoxybenzoyl)pyridin-2(1H)-one (41)] | 23.5 µM | 
CCCCCCn1cc(C(=O)c2ccccc2O)ccc1=O [1-Hexyl-5-(2-hydroxybenzoyl)pyridin-2(1H)-one (28)] | 28.1 µM | 
COc1ccc(C(=O)c2ccc(=O)n(CCN(C)C)c2)c(O)c1 [1-[2-(Dimethylamino)ethyl]-5-(2-hydroxy-4-methoxybenzoyl) pyridin-2(1H)-one (36)] | 12.5 µM | IC50 [2]: > 300 µM; IC50 [3]: > 300 µM; IC50 [4]: > 300 µM
CCCCCCn1cc(C(=O)c2ccc(O)cc2O)ccc1=O [5-(2,4-Dihydroxybenzoyl)-1-hexylpyridin-2(1H)-one (32)] | 27.7 µM | 
CCCCCCn1cc(C(=O)c2cc(O)ccc2O)ccc1=O [5-(2,5-Dihydroxybenzoyl)-1-hexylpyridin-2(1H)-one (39)] | 22.1 µM | 
CC(C)n1cc(C(=O)c2cc(O)ccc2O)ccc1=O [5-(2,5-Dihydroxybenzoyl)-1-isopropylpyridin-2(1H)-one (40)] | 26.1 µM | 
COc1ccc(C(=O)c2ccc(=O)n(CCO)c2)c(O)c1 [5-(2-Hydroxy-4-methoxybenzoyl)-1-(2-hydroxyethyl)pyridin-2(1H)-one (38)] | 19.9 µM | 
COc1ccc(C(=O)c2ccc(=O)n(C(C)C)c2)c(O)c1 [5-(2-Hydroxy-4-methoxybenzoyl)-1-isopropylpyridin-2(1H)-one (35)] | 47 µM | 
CC(C)(C)OC(=O)NCCn1cc(C(=O)c2ccc(O)cc2O)ccc1=O [t-Butyl [2-{5-(2,4-dihydroxybenzoyl)-2-oxopyridin-1(2H)-yl}ethyl]carbamate (33)] | 57.8 µM | 
COc1ccc(C(=O)c2ccc(=O)n(CCNC(=O)OC(C)(C)C)c2)c(O)c1 [t-Butyl [2-{5-(2-hydroxy-4-methoxybenzoyl)-2-oxopyridin-1(2H)-yl}ethyl]carbamate (37)] | 27.6 µM | 
COc1ccc(O)c(C(=O)c2ccc(=O)n(CCNC(=O)OC(C)(C)C)c2)c1 [t-Butyl [2-{5-(2-hydroxy-5-methoxybenzoyl)-2-oxopyridin-1(2H)-yl}ethyl]carbamate (43)] | 21.9 µM | 

Second part, led by results:

IC50 [1] | Compound | also measured
24.8 µM | COc1ccc(O)c(C(=O)c2ccc(=O)n(C3CCCCC3)c2)c1 [1-Cyclohexyl-5-(2-hydroxy-5-methoxybenzoyl)pyridin-2 (1H)-one (42)] | 
25.4 µM | O=C(c1ccc(=O)n(C2CCCCC2)c1)c1ccccc1O [1-Cyclohexyl-5-(2-hydroxybenzoyl)pyridin-2(1H)-one (30)] | 
28.2 µM | CN(C)CCn1cc(C(=O)c2ccccc2O)ccc1=O [1-[2-(Dimethylamino)ethyl]-5-(2-hydroxybenzoyl)pyridin-2(1H)-one (31)] | 
21.8 µM | CC(C)n1cc(C(=O)c2ccccc2O)ccc1=O [5-(2-Hydroxybenzoyl)-1-isopropylpyridin-2(1H)-one (29)] | 
20.1 µM | O=c1ccc(/C(=N\C2CCCCC2)c2ccccc2O)cn1C1CCCCC1 [(E)-1-Cyclohexyl-5-[(cyclohexylimino)(2-hydroxyphenyl)methyl]pyridin-2(1H)-one (45)] | 
37.9 µM | CC(C)/N=C(\c1ccc(=O)n(C(C)C)c1)c1ccccc1O [(E)-5-[(2-Hydroxyphenyl)(isopropylimino)methyl]-1-isopropylpyridin-2(1H)-one (44)] | 
